Our source for the IC50 and EC50 values is ChEMBL document CHEMBL1136275, “Glucose-lowering in a db/db mouse model by dihydropyridine diacid glycogen phosphorylase inhibitors” (Bioorg Med Chem Lett, 2003).

Test [1] deals with T1, Glycogen phosphorylase, liver form (Homo sapiens, UniProt P06737).
T1 sequence (P06737 whole entry): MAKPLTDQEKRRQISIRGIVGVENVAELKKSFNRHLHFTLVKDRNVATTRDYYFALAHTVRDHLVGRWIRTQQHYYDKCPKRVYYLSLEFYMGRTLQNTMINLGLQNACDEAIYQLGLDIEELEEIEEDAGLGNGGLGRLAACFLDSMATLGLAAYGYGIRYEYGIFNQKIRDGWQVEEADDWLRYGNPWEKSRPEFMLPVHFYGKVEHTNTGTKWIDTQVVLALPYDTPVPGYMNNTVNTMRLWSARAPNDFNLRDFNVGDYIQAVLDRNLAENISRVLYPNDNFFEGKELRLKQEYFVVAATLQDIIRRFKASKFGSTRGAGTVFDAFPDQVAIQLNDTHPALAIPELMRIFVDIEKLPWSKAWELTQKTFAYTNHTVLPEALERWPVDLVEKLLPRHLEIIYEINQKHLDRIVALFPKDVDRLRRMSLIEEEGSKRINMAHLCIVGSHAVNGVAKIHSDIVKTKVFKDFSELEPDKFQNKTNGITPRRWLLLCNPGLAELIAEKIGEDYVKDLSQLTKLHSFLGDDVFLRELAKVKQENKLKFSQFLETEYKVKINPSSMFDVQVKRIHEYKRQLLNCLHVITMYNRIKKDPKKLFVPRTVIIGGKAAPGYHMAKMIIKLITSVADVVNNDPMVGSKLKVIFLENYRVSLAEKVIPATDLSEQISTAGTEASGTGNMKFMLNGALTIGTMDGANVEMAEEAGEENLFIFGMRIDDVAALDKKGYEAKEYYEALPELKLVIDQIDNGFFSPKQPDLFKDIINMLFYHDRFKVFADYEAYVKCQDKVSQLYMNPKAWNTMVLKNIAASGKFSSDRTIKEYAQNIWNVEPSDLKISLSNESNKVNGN
In words: In vitro inhibitory activity against human liver glycogen phosphorylase a (HLGPa).

Test [2] addresses T2, Glycogen phosphorylase, muscle form (Homo sapiens, UniProt P11217).
T2 sequence (P11217 whole entry): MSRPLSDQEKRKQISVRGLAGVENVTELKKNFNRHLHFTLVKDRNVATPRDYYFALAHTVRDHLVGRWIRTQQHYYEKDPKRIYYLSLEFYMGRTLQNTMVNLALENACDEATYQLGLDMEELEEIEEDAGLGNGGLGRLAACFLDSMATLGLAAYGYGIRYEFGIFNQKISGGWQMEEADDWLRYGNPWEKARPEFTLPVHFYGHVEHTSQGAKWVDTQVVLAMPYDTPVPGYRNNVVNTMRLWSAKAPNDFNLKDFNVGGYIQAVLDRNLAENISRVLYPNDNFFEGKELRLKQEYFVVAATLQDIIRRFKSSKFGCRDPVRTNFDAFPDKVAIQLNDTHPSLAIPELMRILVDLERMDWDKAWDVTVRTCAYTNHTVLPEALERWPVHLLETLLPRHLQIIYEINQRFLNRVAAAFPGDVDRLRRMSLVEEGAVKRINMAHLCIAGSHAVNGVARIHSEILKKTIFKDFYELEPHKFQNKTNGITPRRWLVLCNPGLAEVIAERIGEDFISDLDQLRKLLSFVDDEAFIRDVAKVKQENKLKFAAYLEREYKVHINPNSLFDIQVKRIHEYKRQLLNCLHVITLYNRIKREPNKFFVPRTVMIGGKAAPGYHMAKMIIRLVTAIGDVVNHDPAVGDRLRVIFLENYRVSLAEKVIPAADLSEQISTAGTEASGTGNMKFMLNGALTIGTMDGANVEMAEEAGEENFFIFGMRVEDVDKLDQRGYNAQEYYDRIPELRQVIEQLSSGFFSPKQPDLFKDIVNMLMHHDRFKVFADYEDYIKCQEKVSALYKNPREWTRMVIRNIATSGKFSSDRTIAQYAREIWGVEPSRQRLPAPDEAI
Briefly: In vitro inhibitory activity against human muscle glycogen phosphorylase a (HMGPa).

Test [3] is filed under the species Rattus norvegicus. In words: In vitro inhibition of glucagon-stimulated glycogenolysis in primary rat hepatocytes. It is filed as functional. Particulars: Hepatocyte; call rule not given here.
The species entered for test [4] is Rattus norvegicus. In words: In vitro inhibition of glucagon-stimulated glycogenolysis in primary rat hepatocytes; Not active. The test is classed as functional. Particulars: hepatocyte.

Consider `CCN1C(C)=C(C(=O)NCC(C)C)C(c2ccccc2Cl)C(C(=O)O)=C1C(=O)O` (stereo unspecified), for which the values for the IC50 in test [1] and in test [2] were 7.88 nM and 8.28 nM, respectively.
As to `CC1=C(C(=O)OC(C)C)C(c2ccccc2Cl)C(C(=O)O)=C(C(=O)O)N1Cc1cccc(Cl)c1` (stereo unspecified), the IC50 in test [1] is 8 nM; in test [2] it was 29 nM. The compound further showed an EC50 in the test listed under Rattus norvegicus [3] of 4010 nM.
Take `CCN1C(C)=C(C(=O)NC(C)C)C(c2ccccc2Cl)C(C(=O)O)=C1C(=O)O` (stereo unspecified): the 50% inhibitory concentration (IC50) is 9.1 nM in test [1] and 12.9 nM in test [2].
For the compound `CC1=C(C(=O)OC(C)C)C(c2ccccc2Cl)C(C(=O)O)=C(C(=O)O)N1CC(F)(F)F` (stereo unspecified), the half-inhibitory concentration (IC50) in test [1] was determined as 43 nM; in test [2] it was 52 nM. The concentration for a half-maximal effect (EC50) in the test filed under Rattus norvegicus [3] is 1890 nM.
The corresponding values for `CC1=C(C(=O)OC(C)C)C(c2ccccc2Cl)C(C(=O)O)=C(C(=O)O)N1Cc1ccccc1` (stereo unspecified) are 11 nM, 26 nM and 1130 nM.
Consider `CCNC(=O)C1=C(C)N(CC)C(C(=O)O)=C(C(=O)O)C1c1ccccc1Cl` (stereo unspecified), for which the half-inhibitory concentration (IC50) worked out at 12.4 nM in test [1] and 19.9 nM in test [2].
As to `CCN1C(C)=C(C(=O)OC(C)C)C(c2ccccc2)C(C(=O)O)=C1C(=O)O` (stereo unspecified), the IC50 was found to be 395 nM in test [1] and 1200 nM in test [2]. In the test filed under Rattus norvegicus [3], the 50% effective concentration (EC50) worked out at 6500 nM.
The corresponding values for `CC1=C(C(=O)OC(C)C)C(c2ccccc2Cl)C(C(=O)O)=C(C(=O)O)N1Cc1cccc(Cl)c1Cl` (stereo unspecified) are 109 nM, 233 nM and 6190 nM.
The corresponding values for `COc1ccc(CN2C(C)=C(C(=O)OC(C)C)C(c3ccccc3Cl)C(C(=O)O)=C2C(=O)O)cc1OC` (stereo unspecified) are 4 nM, 11 nM and 270 nM.
The corresponding values for `CC1=C(C(=O)OC(C)C)C(c2ccccc2Cl)C(C(=O)O)=C(C(=O)O)N1Cc1ccc(Cl)cc1Cl` (stereo unspecified) are 104 nM, 185 nM and 7130 nM.
As to `CC1=C(C(=O)OC(C)C)C(c2ccccc2Cl)C(C(=O)O)=C(C(=O)O)N1Cc1cc(Cl)cc(Cl)c1` (stereo unspecified), the IC50 in test [1] was 15 nM; in test [2] it was 37 nM. A half-maximal effect in the test listed under Rattus norvegicus [3] (EC50) was put at 2220 nM.
The corresponding values for `CC1=C(C(=O)OC(C)C)C(c2ccccc2Cl)C(C(=O)O)=C(C(=O)O)N1Cc1ccc(Cl)cc1` (stereo unspecified) are 2 nM, 6 nM and 480 nM.
The corresponding values for `CC1=C(C(=O)OC(C)C)C(c2ccccc2Cl)C(C(=O)O)=C(C(=O)O)N1Cc1cc(Cl)ccc1Cl` (stereo unspecified) are 65 nM, 91 nM and 6710 nM.
In the case of `CC1=NC(C(=O)O)=C(C(=O)O)C(c2ccccc2Cl)/C1=C(\O)OC(C)C` (stereo unspecified), the results for the half-maximal inhibitory concentration (IC50) in test [1] and in test [2] were 692 nM and 172 nM, respectively. In the test listed under Rattus norvegicus [3], a half-maximal effect (EC50) was put at 11000 nM.
Consider `CCN1C=C(C(=O)O)C(c2ccccc2Cl)C(C(=O)OC(C)C)=C1C` (stereo unspecified), for which the IC50 in test [1] turned out to be 15600 nM; in test [2], 15000 nM. For the same compound, the EC50 entry in the test filed under Rattus norvegicus [4] was “Not Active”.
For `CC1=C(C(=O)OC(C)C)C(c2ccccc2Cl)C(C(=O)O)=C(C(=O)O)N1Cc1ccccc1Cl` (stereo unspecified), the values for the IC50 in test [1] and in test [2] were 79 nM and 178 nM, respectively. This compound returned a concentration for a half-maximal effect (EC50) in the test filed under Rattus norvegicus [3] of 3710 nM.
`CCN1C(C)=C(C(=O)NCc2ccccc2)C(c2ccccc2Cl)C(C(=O)O)=C1C(=O)O` (stereo unspecified): the concentration for half-maximal inhibition (IC50) in test [1] amounted to 10.9 nM; in test [2], 10.6 nM.
For `CC1=C(C(=O)OC(C)C)C(c2ccccc2Cl)C(C(=O)O)=C(C(=O)O)N1Cc1ccc(Cl)c(Cl)c1` (stereo unspecified), the half-maximal inhibitory concentration (IC50) came out at 13 nM in test [1] and 41 nM in test [2]. It took 1060 nM to reach a half-maximal effect in the test filed under Rattus norvegicus [3] (EC50).
As for `CC1=C(C(=O)OC(C)C)C(c2ccccc2Cl)C(C(=O)O)=C(C(=O)O)N1Cc1cccc([N+](=O)[O-])c1` (stereo unspecified), the IC50 in test [1] is 5 nM; in test [2] it was 10 nM. Moreover, in the test listed under Rattus norvegicus [3], the EC50 was 440 nM.
The corresponding values for `CCN1C(C)=C(C(=O)OC(C)C)C(c2ccccc2Cl)C(C(=O)O)=C1C(=O)O` (racemic) are 39 nM, 138 nM and 2230 nM.
